Data published in article PMC7338734 (Neuroscience Insights, 2020).

What was measured:
[1] = molecular target: Acetylcholinesterase (AChE) (Electrophorus electricus, UniProt O42275); experiment: Ellman's assay, purified enzyme from electric eel; type: biochemical
[2] = molecular target: Butyrylcholinesterase (BuChE) (Equus caballus, UniProt P81908); experiment: Ellman's assay, purified enzyme from equine serum; type: biochemical
Sequence of Butyrylcholinesterase (BuChE) (P81908 whole entry): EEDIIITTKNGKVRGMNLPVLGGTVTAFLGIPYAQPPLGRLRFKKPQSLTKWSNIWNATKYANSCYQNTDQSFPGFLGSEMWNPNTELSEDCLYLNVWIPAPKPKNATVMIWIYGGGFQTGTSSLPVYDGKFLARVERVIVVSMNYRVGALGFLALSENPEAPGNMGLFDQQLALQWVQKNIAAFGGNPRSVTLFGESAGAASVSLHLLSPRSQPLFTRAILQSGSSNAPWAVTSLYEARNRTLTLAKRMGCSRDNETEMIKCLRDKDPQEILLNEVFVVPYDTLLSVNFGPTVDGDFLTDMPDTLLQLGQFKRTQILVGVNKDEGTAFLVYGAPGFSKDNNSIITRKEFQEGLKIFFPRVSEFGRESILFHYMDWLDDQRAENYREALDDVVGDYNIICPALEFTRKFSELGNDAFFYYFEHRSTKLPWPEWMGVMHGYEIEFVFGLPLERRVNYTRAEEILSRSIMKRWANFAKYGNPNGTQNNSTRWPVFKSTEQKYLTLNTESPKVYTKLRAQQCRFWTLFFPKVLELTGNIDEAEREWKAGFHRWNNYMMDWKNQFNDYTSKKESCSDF

Sequence of Acetylcholinesterase (AChE) (O42275 24-633): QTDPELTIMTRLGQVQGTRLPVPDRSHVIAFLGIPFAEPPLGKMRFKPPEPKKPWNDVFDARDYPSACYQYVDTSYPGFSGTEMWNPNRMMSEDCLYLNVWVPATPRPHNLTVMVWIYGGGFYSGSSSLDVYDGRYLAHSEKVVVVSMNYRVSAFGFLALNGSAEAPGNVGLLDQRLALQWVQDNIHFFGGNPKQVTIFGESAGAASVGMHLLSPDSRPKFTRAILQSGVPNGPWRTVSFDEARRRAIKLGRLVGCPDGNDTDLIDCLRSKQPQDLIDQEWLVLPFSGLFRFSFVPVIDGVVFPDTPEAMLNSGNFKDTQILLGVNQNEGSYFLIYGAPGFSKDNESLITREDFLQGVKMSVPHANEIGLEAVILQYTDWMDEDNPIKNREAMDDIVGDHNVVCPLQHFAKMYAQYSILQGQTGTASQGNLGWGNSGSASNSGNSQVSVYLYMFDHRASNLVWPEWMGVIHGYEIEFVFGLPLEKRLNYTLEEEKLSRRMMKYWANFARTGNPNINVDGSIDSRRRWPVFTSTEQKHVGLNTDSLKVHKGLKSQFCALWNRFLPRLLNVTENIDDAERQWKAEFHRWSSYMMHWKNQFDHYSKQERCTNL

## COc1cc2ccc(=O)oc2cc1O [scopoletin, 6-methoxy-7-hydroxycoumarin]
[1]
  IC50: 5.34 µM
[2]
  IC50: 9.11 µM
